Values joined by “and” are separate entries in the source; they are usually repeats but may differ in a detail not shown here. Equal entries are not always repeated.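 Assay format: 96-well plates, 48-hour exposure. GI50: concentration for 50% inhibition of growth. TGI marks complete inhibition of growth.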
Key:
Experiment in all cases: NCI anticancer screen, dose series, 48 h
[1] = system: MALME-3M melanoma
[2] = system: UACC-257 melanoma
[3] = system: SF-268 CNS
[4] = system: M14 melanoma
[5] = system: KM20L2 colon
[6] = system: HCT-116 colon
[7] = system: 786-0 renal
[8] = system: SNB-78 CNS
[9] = system: T-47D breast
[10] = system: BT-549 breast

SMILES	TGI [1] [µM]	TGI [2]	TGI [3]	TGI [4] [µM]	TGI [5] [µM]	TGI [6]	TGI [7] [µM]	TGI [8] [µM]	TGI [9] [µM]	TGI [10] [µM]	GI50 [3] [µM]	GI50 [4] [µM]	GI50 [6] [µM]	GI50 [7] [µM]	GI50 [1] [µM]	GI50 [9] [µM]	GI50 [2] [µM]	GI50 [10] [µM]
O=c1c2cc(Br)ccc2nc(-c2ccccc2Cl)n1NCC1(O)OCC(O)C(O)C1O (stereo unspecified)	> 100	> 100 µM	> 100 µM	> 100	> 100	> 100 µM	> 100	> 100										
Nc1ccn(CCO)c(=O)n1	> 100	> 100 µM	> 100 µM	> 100	> 100	> 100 µM	> 100	> 100										
Nc1ncnc2c1ncn2CC(O)C(=O)O (stereo unspecified)	> 100	> 100 µM	> 100 µM	> 100	> 100	> 100 µM	> 100		> 100	> 100								
CCCCCCCCCCC(O)[C@H]1CCC(C2CC[C@H]([C@H](O)CCCCCCCCCCC(O)CC3=CC(C)OC3=O)O2)O1 (stereo partly specified)	4.32	4.83 µM and 5.13 µM	3.67 µM and 8.61 µM		19.4	8.87 µM and 10 µM	7.1	8.16			1.11	7	2.24	2.68				
CC(/C(=N/NC(=O)C(N)=O)c1c(Cl)ccc(Cl)c1O)C1(O)C(=O)Nc2ccccc21 (stereo unspecified)	> 100	> 100 µM	> 100 µM	> 100	> 100	> 100 µM	> 100	> 100										
OCC(O)C(OC1OC(CO)C(O)C(O)C1O)c1nn(-c2ccccc2)c2nc3cc(Cl)c(Cl)cc3cc12 (stereo unspecified)	> 100	> 100 µM	> 100 µM	> 100	> 100	> 100 µM	> 100	> 100										
CS(=O)(=O)OCCn1cnc2nc(NC(=O)c3ccccc3)[nH]c(=O)c21	> 100	> 100 µM	> 100 µM	> 100	> 100	> 100 µM	> 100	> 100										
COCC1N=C(c2cc(OC)c(OC)c(OC)c2-c2cc3c(cc2C2OCCCO2)OCO3)O[C@H]1c1ccccc1 (stereo partly specified)	> 100	> 100 µM	> 100 µM	> 100	> 100	> 100 µM	> 100											
Cc1cccc(NC(=O)c2cc3cc(N=Nc4ccccc4Cl)ccc3oc2=O)c1	> 100	> 100 µM	84.4 µM	85.9	> 100	57.3 µM	> 100	> 100										
COc1ccn2c(C(C)=O)cc(C(=O)c3ccc4c(c3)Sc3ccccc3N4)c2c1	> 100	> 100 µM	> 100 µM	> 100		4.93 µM	55.1		> 100	> 100	0.141	0.0853	0.0674	0.145	> 27.8	44.7	> 30.6	0.134
O=C1c2ccc3c4c5ccc(c24)C(=O)N1CCCOCCCCOCCCNCc1ccc(cc1)CNCCCOCCCCOCCCN(C3=O)C5=O	1.3	1.98 µM	2.43 µM	1.75		1.9 µM	2.02		2.28	4.87	0.972	0.923	0.888	0.956	0.628	0.997	0.989	1.62
CCCCCCCCC(=O)N(C)C1C2CN3CCC(O2)C13 (stereo unspecified)	> 100	> 100 µM	> 100 µM	> 100	> 100	> 100 µM	> 100	> 100										
COc1cc(C(O)c2nc3ccccc3s2)cc(OC)c1OC (stereo unspecified)	> 100	> 100 µM	> 100 µM	> 100		> 100 µM	> 100		> 100	> 100	> 100	85.3	45.4	> 100	21.4	17.3	26	60.6
O=c1[nH]nc2ccccc2c1Cl	31	29.7 µM	41.9 µM	25.6	29.5	29.9 µM	28.4	41.1										
COC(=O)c1cc(-c2cc(OC)c(OC)c(OC)c2)[nH]c1N/N=C/c1c(Cl)cccc1Cl	8.2	35.7 µM	11.2 µM	40.1		> 33 µM	7.18		6.29	16.3	1.35	8.6	1.11	2.03	1.47	1.92	5.82	2.74
O=C1/C(=C/c2ccc([N+](=O)[O-])o2)Oc2ccc(Br)cc21	4.74	4.38 µM	4.16 µM	7.01		3.46 µM	5.29		4.39	3.5	2.04	2.68	1.9	2.47	1.92	1.92	2	1.87
O=c1c2cccc3cccc(c4oc5c6cccc7cccc(c(=O)c5c14)c76)c32	17.9	30 µM	19.6 µM	17.7	26.2	17 µM	15.8	21.2										
COC1(O)C(=O)c2ccccc2OC1(OC)c1ccccc1 (stereo unspecified)	> 100	> 100 µM	> 100 µM	> 100		> 100 µM	> 100		> 100	> 100								
CN1CCN(c2nc(NCCCCNc3ccnc4cc(Cl)ccc34)c3ccccc3n2)CC1	3.61	3.9 µM	33.9 µM	3.47		11.7 µM	3.26		6.65	15	10.7	1.83	2.58	1.65	1.93	2.23	2.03	3.45
CC1=CCC(OC(=O)C(C)(C)CCC(O)(C(=O)OC2(C(C)C)CCC3(C)OC3C2)C(C)C)(C(C)C)CC1 (stereo unspecified)	1.48	1.5 µM	1.46 µM	1.46		0.381 µM	1.54		1.24	1.51	0.603	0.654	0.113	0.616	0.733	0.152	0.727	0.696

SMILES	TGI [1] [µM]	TGI [2]	TGI [3]	TGI [4] [µM]	TGI [5] [µM]	TGI [6]	TGI [7] [µM]	TGI [8] [µM]	TGI [9] [µM]	TGI [10] [µM]	GI50 [3] [µM]	GI50 [4] [µM]	GI50 [6] [µM]	GI50 [7] [µM]	GI50 [1] [µM]	GI50 [9] [µM]	GI50 [2] [µM]	GI50 [10] [µM]
COc1ccc2c(c1)c(-c1nc(-c3c[nH]c4ncccc34)cs1)cn2CCCCN1CCOCC1	3.34	3.85 µM	3.93 µM	3.62		3.37 µM	3.3		6.5	15.5	1.8	1.81	1.78	1.78	1.55	2.12	2.18	3.74
N#C/C(=C1\NN=C(N)C(c2ccc(Cl)cc2)=C1O)c1ccc(Cl)cc1	> 100	> 100 µM	> 100 µM	> 100	> 100	> 100 µM	> 100	> 100										
O=C(O)CCSCCCN1C(=O)c2ccccc2C1=O	> 100	> 100 µM	> 100 µM		> 100	> 100 µM	> 100	> 100										
Fc1cccc2cc3ccc4cccc5ccc(c12)c3c45	> 100	> 100 µM	> 100 µM	> 100	> 100	> 100 µM	> 100											
COc1ccc(C(=O)/C=C/c2c(C(F)(F)F)nc3sccn23)cc1OC	> 100	> 100 µM	> 100 µM	> 100		68.7 µM	> 100		40.7	> 100	3.44	2.67	1.4	5.67	5.92	2.9	7.77	3.25
CCc1cccc2c3c(sc12)C(c1ccc(Cl)cc1)C(C#N)=C(N)O3 (stereo unspecified)	9.9	33.1 µM	22.2 µM	4.79		9.59 µM	14.7		16.1	15.6	0.933	0.472	0.408	0.94	0.712	0.493	8.64	0.983
O=C(/C=C/c1ccc(Cl)c(Cl)c1)c1ccc(F)cc1	83.4	58 µM	56.3 µM	30.5	35.2	20.3 µM	28.9	41.1										
COc1ccc(-c2nnc(SCC(=O)Nc3ccc(/C(C)=N\O)cc3)n2-c2ccccc2)cc1OC	> 100	> 100 µM	20.3 µM	> 100		> 100 µM	> 100		> 100	> 100	3.07	97.4	11.3	14.9	17.2	9.45	> 100	13.7
COC(=O)C1C2C=CC(C2)C1(C(=O)OC)S(=O)CC12CCC(CC1O)C2(C)C (stereo unspecified)	> 100	> 100 µM	> 100 µM	> 100	> 100	> 100 µM	> 100	> 100										
CN(C)CCNC(=O)c1ccc(C(=O)NCCN(C)C)c2nc3ccccc3cc12	2.97	4.47 µM	6.79 µM	3.44	10.3	6.08 µM	13.8	12.7										
COc1ccc(C2=NN(C(=O)COc3ccc(Cl)cc3)C(O)(c3ccc(Cl)cc3)C2)cc1 (stereo unspecified)	> 100	> 100 µM	> 100 µM	> 100	> 100	> 100 µM	> 100	> 100										
Nc1c(Br)c(=O)[nH]c(=O)n1COCCO	> 100	> 100 µM	> 100 µM	> 100		> 100 µM	> 100	> 100										
O=C(CCCCCCSc1nc(-c2ccccc2)cc(-c2ccccc2)n1)NO	8.31	11.1 µM	7.42 µM	5.94		10.7 µM	4.48		8.21	18.4	2.7	1.58	0.813	1.91	1.02	1.86	2.23	3.16
O=C1OC(CC(=O)c2ccc(Cl)cc2Cl)C(Cl)=C1Cl (stereo unspecified)	39.2	> 100 µM	62.7 µM	> 91.9	42	32.9 µM	52.2	> 71.3										
CC1=C(C(=O)Nc2cccc(Cl)c2)C(c2ccc([N+](=O)[O-])cc2)C(C(=O)Nc2cccc(Cl)c2)=C(C)N1	59.5	38.2 µM	> 100 µM	42.1	54.4	71.9 µM	69.6	> 100										
Cc1ccc2c(c1C)-c1c(ccc(C)c1C)C(=O)C2=O	1.83	3.48 µM	5.38 µM	2.12		13.3 µM	1.8		44.3	1.06								
CC1CC(c2cccc3c2OCO3)=Nc2ccccc2S1 (stereo unspecified)	> 100	> 100 µM	> 100 µM	> 100	> 100		> 100	> 100										
Cc1cc(C)c2c(c1)Nc1ccccc1P2c1ccccc1 (stereo unspecified)	71.8		> 100 µM	> 100	74.7		> 100	> 100										
CCN1CCN(CC(=O)Nc2nc3ccc(NCc4ccc(Cl)cc4)cc3s2)CC1	3.2	6.86 µM	6.29 µM	3.63		11.7 µM	20.1		5.8	25	2.43	1.86	3.21	6.38	1.67	1.94	2.65	10.6
C=C1CC2(C[C@@H](c3ccccc3)O[C@@H](c3ccccc3)C2)OC1=O (stereo partly specified)	4.28	10.8 µM	23.6 µM	3.34		3.71 µM	5.63		3.68	4.24								

From PubChem BioAssay (NCI)
